Measurements published in US20120121591A1 (priority 2009, published 2012).

Legend:
Assay type in all cases: cell-based
hKv1.3 = hKv1.3 (Homo sapiens, UniProt P22001); test: cell-based; conditions: Kv1.3 (IWQ) IC50 (nM, Avg)
[1] = test system: IL-2 secretion from T cells in human whole blood; conditions: read-out: WB (IL-2) IC50 (nM, Avg)
[2] = test system: IFN-g secretion from T cells in human whole blood; conditions: read-out: WB (IFNg) IC50 (nM, Avg)

Chain of hKv1.3 (P22001 whole entry): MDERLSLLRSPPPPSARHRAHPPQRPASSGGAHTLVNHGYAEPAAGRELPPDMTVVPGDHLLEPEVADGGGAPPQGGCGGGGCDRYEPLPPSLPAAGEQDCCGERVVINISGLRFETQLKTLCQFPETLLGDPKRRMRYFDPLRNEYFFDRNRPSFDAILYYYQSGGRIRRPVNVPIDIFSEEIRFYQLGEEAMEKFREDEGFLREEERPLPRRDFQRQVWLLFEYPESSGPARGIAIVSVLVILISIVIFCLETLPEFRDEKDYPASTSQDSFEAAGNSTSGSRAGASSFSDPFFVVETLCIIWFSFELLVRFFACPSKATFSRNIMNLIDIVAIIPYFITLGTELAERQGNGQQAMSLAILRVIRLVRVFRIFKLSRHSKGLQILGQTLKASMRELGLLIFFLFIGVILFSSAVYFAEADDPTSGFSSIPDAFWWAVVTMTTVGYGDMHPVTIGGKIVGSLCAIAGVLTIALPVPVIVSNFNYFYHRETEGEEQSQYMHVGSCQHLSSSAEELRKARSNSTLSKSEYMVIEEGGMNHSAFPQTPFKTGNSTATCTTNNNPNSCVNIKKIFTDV

CCCC[C@@H]1NC(=O)[C@H](CO)NC(=O)[C@H](Cc2c[nH]cn2)NC(=O)[C@H](CCCCN)NC(=O)[C@@H]2CSSC[C@@H]3NC(=O)[C@H]([C@@H](C)O)NC(=O)[C@H](CCCCN)NC(=O)[C@H](CCCNC(=N)N)NC(=O)[C@H](CSSC[C@H](NC(=O)[C@H](CCCNC(=N)N)NC(=O)[C@H](CO)NC(=O)[C@H](CCCCN)NC(=O)[C@@H]4CCCN4C(=O)[C@H]([C@@H](C)CC)NC(=O)[C@H]([C@@H](C)O)NC(=O)[C@H](CC(=O)O)NC(=O)[C@H](CCC(=O)O)NC(=O)[C@@H](NC(=O)[C@H](CO)NC(=O)[C@@H](N)CCCNC(=N)N)CSSC[C@@H](C(=O)N[C@@H](C)C(=O)O)NC(=O)[C@H]([C@@H](C)O)NC(=O)CNC3=O)C(=O)N[C@@H]([C@@H](C)O)C(=O)N[C@@H](C)C(=O)N[C@@H](Cc3ccccc3)C(=O)N[C@@H](CCCCN)C(=O)N2)NC(=O)[C@H](Cc2ccccc2)NC(=O)[C@H](CO)NC(=O)[C@H](CC(C)C)NC(=O)[C@H](CCCNC(=N)N)NC(=O)[C@H](Cc2ccc(O)cc2)NC(=O)[C@H](CCCCN)NC1=O [[Glu4,Lys16,N1e21]ShK-Ala]
IC50 (hKv1.3): 33.3 nM | IC50 [1]: 0.327 nM | IC50 [2]: 0.987 nM

CC[C@H](C)[C@@H]1NC(=O)[C@@H](NC(=O)[C@H](CO)NC(=O)[C@@H](N)CCCNC(=N)N)CSSC[C@@H](C(=O)O)NC(=O)[C@H]([C@@H](C)O)NC(=O)CNC(=O)[C@@H]2CSSC[C@@H]3NC(=O)[C@H](CCC(N)=O)NC(=O)[C@H](Cc4ccccc4)NC(=O)[C@H](C)NC(=O)[C@H]([C@@H](C)O)NC(=O)[C@H](CSSC[C@H](NC(=O)[C@H](Cc4ccccc4)NC(=O)[C@H](CO)NC(=O)[C@H](CC(C)C)NC(=O)[C@H](CCCNC(=N)N)NC(=O)[C@H](Cc4ccc(O)cc4)NC(=O)[C@H](CCCCN)NC(=O)[C@H](CCSC)NC(=O)[C@H](CO)NC(=O)[C@H](Cc4c[nH]cn4)NC(=O)[C@H](CCCCN)NC3=O)C(=O)N[C@@H](CCCNC(=N)N)C(=O)N[C@@H](CCCCN)C(=O)N[C@@H]([C@@H](C)O)C(=O)N2)NC(=O)[C@H](CCCNC(=N)N)NC(=O)[C@H](CO)NC(=O)[C@H](CCCCN)NC(=O)[C@@H]2CCCN2C(=O)[C@H](CCCCN)NC(=O)[C@H]([C@@H](C)O)NC(=O)[C@H](CC(=O)O)NC1=O [[Lys7]ShK]
IC50 (hKv1.3): 0.792 nM | IC50 [1]: 4.67 nM | IC50 [2]: 13.5 nM

CC[C@H](C)[C@@H]1NC(=O)[C@@H](NC(=O)[C@H](CO)NC(=O)[C@@H](N)CCCNC(=N)N)CSSC[C@@H](C(=O)O)NC(=O)[C@H](CCCCN)NC(=O)CNC(=O)[C@@H]2CSSC[C@@H]3NC(=O)[C@H](CCC(N)=O)NC(=O)[C@H](Cc4ccccc4)NC(=O)[C@H](C)NC(=O)[C@H]([C@@H](C)O)NC(=O)[C@H](CSSC[C@H](NC(=O)[C@H](Cc4ccccc4)NC(=O)[C@H](CO)NC(=O)[C@H](CC(C)C)NC(=O)[C@H](CCCNC(=N)N)NC(=O)[C@H](Cc4ccc(O)cc4)NC(=O)[C@H](CCCCN)NC(=O)[C@H](CCSC)NC(=O)[C@H](CO)NC(=O)[C@H](Cc4c[nH]cn4)NC(=O)[C@H](CCCCN)NC3=O)C(=O)N[C@@H](CCCNC(=N)N)C(=O)N[C@@H](CCCCN)C(=O)N[C@@H]([C@@H](C)O)C(=O)N2)NC(=O)[C@H](CCCNC(=N)N)NC(=O)[C@H](CO)NC(=O)[C@H](CCCCN)NC(=O)[C@@H]2CCCN2C(=O)[C@H]([C@@H](C)CC)NC(=O)[C@H]([C@@H](C)O)NC(=O)[C@H](CC(=O)O)NC1=O [[Lys34]ShK]
IC50 (hKv1.3): 0.15 nM | IC50 [1]: 0.067 nM | IC50 [2]: 0.136 nM

CC[C@H](C)[C@@H]1NC(=O)[C@@H](NC(=O)[C@H](CO)NC(=O)[C@@H](N)Cc2cccc3ccccc23)CSSC[C@@H](C(=O)O)NC(=O)[C@H]([C@@H](C)O)NC(=O)CNC(=O)[C@@H]2CSSC[C@@H]3NC(=O)[C@H](CCC(N)=O)NC(=O)[C@H](Cc4ccccc4)NC(=O)[C@H](C)NC(=O)[C@H]([C@@H](C)O)NC(=O)[C@H](CSSC[C@H](NC(=O)[C@H](Cc4ccccc4)NC(=O)[C@H](CO)NC(=O)[C@H](CC(C)C)NC(=O)[C@H](CCCNC(=N)N)NC(=O)[C@H](Cc4ccc(O)cc4)NC(=O)[C@H](CCCCN)NC(=O)[C@H](CCSC)NC(=O)[C@H](CO)NC(=O)[C@H](Cc4c[nH]cn4)NC(=O)[C@H](CCCCN)NC3=O)C(=O)N[C@@H](CCCNC(=N)N)C(=O)N[C@@H](CCCCN)C(=O)N[C@@H]([C@@H](C)O)C(=O)N2)NC(=O)[C@H](CCCNC(=N)N)NC(=O)[C@H](CO)NC(=O)[C@H](CCCCN)NC(=O)[C@@H]2CCCN2C(=O)[C@H]([C@@H](C)CC)NC(=O)[C@H]([C@@H](C)O)NC(=O)[C@H](CC(=O)O)NC1=O [[1-Nal1]ShK]
IC50 (hKv1.3): 0.225 nM | IC50 [1]: 0.222 nM | IC50 [2]: 0.247 nM

CC[C@H](C)[C@@H]1NC(=O)[C@@H](NC(=O)[C@H](Cc2cccc3ccccc23)NC(=O)[C@@H](N)CCCNC(=N)N)CSSC[C@@H](C(=O)O)NC(=O)[C@H]([C@@H](C)O)NC(=O)CNC(=O)[C@@H]2CSSC[C@@H]3NC(=O)[C@H](CCC(N)=O)NC(=O)[C@H](Cc4ccccc4)NC(=O)[C@H](C)NC(=O)[C@H]([C@@H](C)O)NC(=O)[C@H](CSSC[C@H](NC(=O)[C@H](Cc4ccccc4)NC(=O)[C@H](CO)NC(=O)[C@H](CC(C)C)NC(=O)[C@H](CCCNC(=N)N)NC(=O)[C@H](Cc4ccc(O)cc4)NC(=O)[C@H](CCCCN)NC(=O)[C@H](CCSC)NC(=O)[C@H](CO)NC(=O)[C@H](Cc4c[nH]cn4)NC(=O)[C@H](CCCCN)NC3=O)C(=O)N[C@@H](CCCNC(=N)N)C(=O)N[C@@H](CCCCN)C(=O)N[C@@H]([C@@H](C)O)C(=O)N2)NC(=O)[C@H](CCCNC(=N)N)NC(=O)[C@H](CO)NC(=O)[C@H](CCCCN)NC(=O)[C@@H]2CCCN2C(=O)[C@H]([C@@H](C)CC)NC(=O)[C@H]([C@@H](C)O)NC(=O)[C@H](CC(=O)O)NC1=O [[1-Nal2]ShK]
IC50 (hKv1.3): 0.25 nM | IC50 [1]: 0.223 nM | IC50 [2]: 0.258 nM

CC[C@H](C)[C@@H]1NC(=O)[C@@H](NC(=O)[C@H](CO)NC(=O)[C@@H](N)CCCNC(=N)N)CSSC[C@@H](C(=O)O)NC(=O)[C@H]([C@@H](C)O)NC(=O)CNC(=O)[C@@H]2CSSC[C@@H]3NC(=O)[C@H](CCC(N)=O)NC(=O)[C@H](Cc4ccccc4)NC(=O)[C@H](C)NC(=O)[C@H]([C@@H](C)O)NC(=O)[C@H](CSSC[C@H](NC(=O)[C@H](Cc4ccccc4)NC(=O)[C@H](CO)NC(=O)[C@H](CC(C)C)NC(=O)[C@H](CCCNC(=N)N)NC(=O)[C@H](Cc4ccc(O)cc4)NC(=O)[C@H](CCCCN)NC(=O)[C@H](CCSC)NC(=O)[C@H](CO)NC(=O)[C@H](Cc4c[nH]cn4)NC(=O)[C@H](CCCCN)NC3=O)C(=O)N[C@@H](CCCNC(=N)N)C(=O)N[C@@H](CCCCN)C(=O)N[C@@H](CCCNC(=N)N)C(=O)N2)NC(=O)[C@H](CCCNC(=N)N)NC(=O)[C@H](CO)NC(=O)[C@H](CCCCN)NC(=O)[C@@H]2CCCN2C(=O)[C@H]([C@@H](C)CC)NC(=O)[C@H]([C@@H](C)O)NC(=O)[C@H](CC(=O)O)NC1=O [[Arg31]ShK]
IC50 (hKv1.3): 3.3 nM | IC50 [1]: 12 nM | IC50 [2]: 54.8 nM

CC[C@H](C)[C@@H]1NC(=O)[C@@H](NC(=O)[C@H](CO)NC(=O)[C@@H](N)CCCNC(=N)N)CSSC[C@@H](C(=O)O)NC(=O)[C@H]([C@@H](C)O)NC(=O)[C@H](CCCNC(=N)N)NC(=O)[C@@H]2CSSC[C@@H]3NC(=O)[C@H](CCC(N)=O)NC(=O)[C@H](Cc4ccccc4)NC(=O)[C@H](C)NC(=O)[C@H]([C@@H](C)O)NC(=O)[C@H](CSSC[C@H](NC(=O)[C@H](Cc4ccccc4)NC(=O)[C@H](CO)NC(=O)[C@H](CC(C)C)NC(=O)[C@H](CCCNC(=N)N)NC(=O)[C@H](Cc4ccc(O)cc4)NC(=O)[C@H](CCCCN)NC(=O)[C@H](CCSC)NC(=O)[C@H](CO)NC(=O)[C@H](Cc4c[nH]cn4)NC(=O)[C@H](CCCCN)NC3=O)C(=O)N[C@@H](CCCNC(=N)N)C(=O)N[C@@H](CCCCN)C(=O)N[C@@H]([C@@H](C)O)C(=O)N2)NC(=O)[C@H](CCCNC(=N)N)NC(=O)[C@H](CO)NC(=O)[C@H](CCCCN)NC(=O)[C@@H]2CCCN2C(=O)[C@H]([C@@H](C)CC)NC(=O)[C@H]([C@@H](C)O)NC(=O)[C@H](CC(=O)O)NC1=O [[Arg33]ShK]
IC50 (hKv1.3): 0.102 nM | IC50 [1]: 0.068 nM | IC50 [2]: 0.232 nM

CCC[C@@H]1NC(=O)[C@H](CO)NC(=O)[C@H](Cc2c[nH]cn2)NC(=O)[C@H](CCCCN)NC(=O)[C@@H]2CSSC[C@@H]3NC(=O)[C@H]([C@@H](C)O)NC(=O)[C@H](CCCCN)NC(=O)[C@H](CCCNC(=N)N)NC(=O)[C@H](CSSC[C@H](NC(=O)[C@H](CCCNC(=N)N)NC(=O)[C@H](CO)NC(=O)[C@H](CCCCN)NC(=O)[C@@H]4CCCN4C(=O)[C@H]([C@@H](C)CC)NC(=O)[C@H]([C@@H](C)O)NC(=O)[C@H](CC(=O)O)NC(=O)[C@H]([C@@H](C)CC)NC(=O)[C@@H](NC(=O)[C@H](CO)NC(=O)[C@@H](N)CCCNC(=N)N)CSSC[C@@H](C(=O)N[C@H](C(N)=O)[C@@H](C)O)NC(=O)[C@H]([C@@H](C)O)NC(=O)CNC3=O)C(=O)N[C@@H]([C@@H](C)O)C(=O)N[C@@H](C)C(=O)N[C@@H](Cc3ccccc3)C(=O)N[C@@H](CCCCN)C(=O)N2)NC(=O)[C@H](Cc2ccccc2)NC(=O)[C@H](CO)NC(=O)[C@H](CC(C)C)NC(=O)[C@H](CCCNC(=N)N)NC(=O)[C@H](Cc2ccc(O)cc2)NC(=O)[C@H](CCCCN)NC1=O [[Lys16,Nva21]ShK-Thr-amide]
IC50 (hKv1.3): 0.03 nM | IC50 [1]: 0.385 nM | IC50 [2]: 0.702 nM

CC[C@H](C)[C@@H]1NC(=O)[C@@H](NC(=O)[C@H](CO)NC(=O)[C@@H](N)CCCNC(=N)N)CSSC[C@@H](C(N)=O)NC(=O)[C@H]([C@@H](C)O)NC(=O)CNC(=O)[C@@H]2CSSC[C@@H]3NC(=O)[C@H](CCCCN)NC(=O)[C@H](Cc4ccccc4)NC(=O)[C@H](C)NC(=O)[C@H]([C@@H](C)O)NC(=O)[C@H](CSSC[C@H](NC(=O)[C@H](Cc4ccccc4)NC(=O)[C@H](CO)NC(=O)[C@H](CC(C)C)NC(=O)[C@H](CCCNC(=N)N)NC(=O)[C@H](Cc4ccc(O)cc4)NC(=O)[C@H](CCCCN)NC(=O)[C@H](Cc4ccccc4)NC(=O)[C@H](CO)NC(=O)[C@H](Cc4c[nH]cn4)NC(=O)[C@H](CCCCN)NC3=O)C(=O)N[C@@H](CCCNC(=N)N)C(=O)N[C@@H](CCCCN)C(=O)N[C@@H]([C@@H](C)O)C(=O)N2)NC(=O)[C@H](CCCNC(=N)N)NC(=O)[C@H](CO)NC(=O)[C@H](CCCCN)NC(=O)[C@@H]2CCCN2C(=O)[C@H]([C@@H](C)CC)NC(=O)[C@H]([C@@H](C)O)NC(=O)[C@H](CC(=O)O)NC1=O [[Lys16, Phe21]ShK-amide]
IC50 (hKv1.3): 0.246 nM | IC50 [1]: 1.47 nM | IC50 [2]: 2.04 nM
